Columns and labels:
[1] = tested on: barnyardgrass; experiment: Test B pre-/postemergence herbicide test; assay type: in vivo, Echinochloa crus-galli; settings: for Barnyardgrass plant response rating: postemergence
How it was run: (§1)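 Greenhouse pot assay with simultaneous preemergence (treated seed) and postemergence (2–18 cm seedlings) applications of surfactant-containing, non-phytotoxic solvent formulations. Response scored visually 13–15 days later on a 0–100 scale, 100 meaning complete control.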

[2] = tested on: wild oat; experiment: Test B postemergence herbicide test; assay type: in vivo, Avena fatua; settings: postemergence
How it was run: (§2)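 Greenhouse test; postemergence application to plants at 1–4 leaves (2–18 cm); paddy species at 2 leaves; evaluated visually vs controls at 13–15 days; scale 0–100 (100 = complete control).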

[3] = tested on: rice; experiment: Test B pre-/postemergence herbicide test; assay type: in vivo, Oryza sativa; settings: preemergence
How it was run: (§3)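 Formulation: non-phytotoxic solvent mix with surfactant. Timing: preemergence on seed and postemergence on 2–18 cm plants, applied concurrently. Readout after 13–15 d greenhouse: visual 0–100 control rating against controls.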

[4] = tested on: barnyardgrass; experiment: Test C flooded paddy test; assay type: in vivo, Echinochloa crus-galli; settings: for Plant response rating, Barnyardgrass: visual rating after 12 to 14 days
How it was run: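 Plants were grown to the 1- to 4-leaf stage (2–18 cm) and then treated postemergence, or grown to the 2-leaf stage for the flooded paddy test. They were held in a greenhouse for 12 to 14 days and then scored by eye against controls, where 0 is no effect and 100 is complete control.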

[5] = tested on: morningglory; experiment: Test B pre-/postemergence herbicide test; assay type: in vivo, Ipomoea coccinea; settings: for Morningglory plant response rating: postemergence
How it was run: as §1

[6] = tested on: pigweed; experiment: Test B pre-/postemergence herbicide test; assay type: in vivo, Amaranthus retroflexus; settings: for Pigweed plant response rating: postemergence
How it was run: as §3

[7] = tested on: ducksalad; experiment: Test B flooded paddy test; assay type: in vivo, Heteranthera limosa; settings: 1000 g ai/ha, visual rating, scale 0 to 100 (0 no effect, 100 complete control), 13 to 15 days
How it was run: as §2

[8] = tested on: smallflower umbrella sedge; experiment: Test C flooded paddy test; assay type: in vivo, Cyperus difformis; settings: for Plant response rating, Sedge, Umbrella: visual rating after 12 to 14 days
[9] = tested on: barnyardgrass; experiment: Test B flooded paddy test; assay type: in vivo, Echinochloa crus-galli; settings: 1000 g ai/ha, visual rating, scale 0 to 100 (0 no effect, 100 complete control), 13 to 15 days
How it was run: as §2

[10] = tested on: blackgrass; experiment: Test B postemergence herbicide test; assay type: in vivo, Alopecurus myosuroides; settings: postemergence
How it was run: as §2

[11] = tested on: Surinam grass; experiment: Test B pre-/postemergence herbicide test; assay type: in vivo, Urochloa decumbens; settings: for Surinam Grass plant response rating: postemergence
How it was run: as §3

[12] = tested on: rice; experiment: Test C flooded paddy test; assay type: in vivo, Oryza sativa; settings: for Plant response rating, Rice: visual rating after 12 to 14 days
How it was run: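 Postemergence sprays applied to plants 2 to 18 cm tall (1- to 4-leaf stage); paddy species grown to 2-leaf stage under flooding. After 12 to 14 days in greenhouse, visual rating versus untreated controls on 0–100 scale (0 no effect, 100 complete control).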

[13] = tested on: cocklebur; experiment: Test B pre-/postemergence herbicide test; assay type: in vivo, Xanthium strumarium; settings: for Cocklebur plant response rating: postemergence
How it was run: as §1

[14] = tested on: wheat; experiment: Test B postemergence herbicide test; assay type: in vivo, Triticum aestivum; set-up: key to Wheat plant response rating: 0 = no effect, 100 = complete control; settings: postemergence
How it was run: as §2

[15] = tested on: large crabgrass; experiment: Test B pre-/postemergence herbicide test; assay type: in vivo, Digitaria sanguinalis; settings: for Crabgrass, Large plant response rating: postemergence
How it was run: as §3

[16] = tested on: corn; experiment: Test B pre-/postemergence herbicide test; assay type: in vivo, Zea mays; settings: for Corn plant response rating: postemergence
How it was run: as §3

[17] = tested on: ducksalad; experiment: Test C flooded paddy test; assay type: in vivo, Heteranthera limosa; settings: for Plant response rating, Ducksalad: visual rating after 12 to 14 days
[18] = tested on: rice; experiment: Test B flooded paddy test; assay type: in vivo, Oryza sativa; settings: 1000 g ai/ha, visual rating, scale 0 to 100 (0 no effect, 100 complete control), 13 to 15 days
How it was run: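 Scale 0–100: zero equals no visible effect, 100 complete control, judged by eye relative to controls. Timing: 13 to 15 days in greenhouse post-treatment. Growth stage at spraying: two leaves (paddy) or one to four leaves, 2–18 cm (postemergence).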

[19] = tested on: lambsquarters; experiment: Test B pre-/postemergence herbicide test; assay type: in vivo, Chenopodium album; settings: for Lambsquarters plant response rating: postemergence
How it was run: as §3

[20] = tested on: small flower umbrella sedge; experiment: Test B flooded paddy test; assay type: in vivo, Cyperus difformis; settings: 1000 g ai/ha, visual rating, scale 0 to 100 (0 no effect, 100 complete control), 13 to 15 days
How it was run: as §2

[21] = tested on: velvetleaf; experiment: Test B pre-/postemergence herbicide test; assay type: in vivo, Abutilon theophrasti; settings: for Velvetleaf plant response rating: postemergence
How it was run: as §3

[22] = tested on: giant foxtail; experiment: Test B pre-/postemergence herbicide test; assay type: in vivo, Setaria faberi; settings: for Foxtail, Giant plant response rating: postemergence
How it was run: as §3

[23] = 125 g ai/ha, visual rating, scale 0 (no effect) to 100 (complete control)
[24] = preemergence, 125 g ai/ha, 0 to 100 scale, 0 is no effect, 100 is complete control
[25] = 62 g ai/ha, scale 0 to 100 (0 no effect, 100 complete control)
[26] = 125 g ai/ha, scale of 0 to 100, 0 is no effect, 100 is complete control
[27] = 250 g ai/ha, scale 0 to 100 (0 no effect, 100 complete control)
[28] = 500 g ai/ha, scale 0 to 100 (0 no effect, 100 complete control)
[29] = 125 g ai/ha, 0 = no effect, 100 = complete control, preemergence
[30] = 500 g ai/ha, visual rating, 0 = no effect, 100 = complete control, preemergence
[31] = 500 g ai/ha, visual rating, scale 0 (no effect) to 100 (complete control)
[32] = 125 g ai/ha, scale 0 to 100 (0 no effect, 100 complete control)
[33] = 250 g ai/ha, scale of 0 to 100, 0 is no effect, 100 is complete control

CCn1nc(C(C)(C)C)cc1C(=O)Nc1cccc(C(=O)N(C)C)c1 [Compound 49]
10: Barnyardgrass plant response rating ([1]; 31 g ai/ha, scale 0 to 100) | Oat, Wild plant response rating [2, 23] | Pigweed plant response rating ([6]; 31 g ai/ha, scale 0 to 100) | Surinam Grass plant response rating [11, 23] | Surinam Grass plant response rating ([11]; 31 g ai/ha, scale 0 to 100) | Plant response rating, Surinam Grass [11, 24] | Cocklebur plant response rating ([13]; 31 g ai/ha, scale 0 to 100) | Crabgrass, Large plant response rating [15, 23] | Crabgrass, Large plant response rating ([15]; 31 g ai/ha, scale 0 to 100) | Corn plant response rating ([16]; 31 g ai/ha, scale 0 to 100) | Velvetleaf plant response rating ([21]; 31 g ai/ha, scale 0 to 100) | Foxtail, Giant plant response rating [22, 23]
45: Barnyardgrass plant response rating [4, 25] | Sedge, Umbrella plant response rating [8, 25] | Sedge, Umbrella plant response rating [8, 26]
0: Oat, Wild plant response rating ([2]; 31 g ai/ha, scale 0 to 100) | Morningglory plant response rating [5, 23] | Morningglory plant response rating ([5]; 31 g ai/ha, scale 0 to 100) | Plant response rating, Morningglory [5, 24] | Blackgrass plant response rating [10, 23] | Blackgrass plant response rating ([10]; 31 g ai/ha, scale 0 to 100) | Plant response rating, Cocklebur [13, 24] | Wheat plant response rating [14, 23] | Wheat plant response rating ([14]; 31 g ai/ha, scale 0 to 100) | Plant response rating, Corn [16, 24] | Ducksalad plant response rating [17, 25] | Plant response rating, Velvetleaf [21, 24] | Foxtail, Giant plant response rating ([22]; 31 g ai/ha, scale 0 to 100) | Plant response rating, Foxtail, Giant [22, 24]
25: Rice plant response rating [12, 26]
50: Ducksalad plant response rating [17, 26] | Lambsquarters plant response rating [19, 23]
15: Rice plant response rating [12, 25]
90: Plant response rating, Pigweed [6, 24] | Plant response rating, Rice [12, 28]
70: Plant response rating, Barnyardgrass [4, 27] | Barnyardgrass plant response rating [9] | Plant response rating, Rice [12, 27] | Plant response rating, Lambsquarters [19, 24]
20: Cocklebur plant response rating [13, 23] | Plant response rating, Crabgrass, Large [15, 24] | Corn plant response rating [16, 23] | Lambsquarters plant response rating ([19]; 31 g ai/ha, scale 0 to 100)
80: Plant response rating, Barnyardgrass [4, 28] | Ducksalad plant response rating [7] | Plant response rating, Sedge, Umbrella [8, 27] | Plant response rating, Sedge, Umbrella [8, 28] | Plant response rating, Ducksalad [17, 27] | Plant response rating, Ducksalad [17, 28] | Sedge, Umbrella plant response rating [20]
30: Barnyardgrass plant response rating [1, 23] | Plant response rating, Barnyardgrass [1, 24] | Pigweed plant response rating [6, 23] | Rice plant response rating [18] | Velvetleaf plant response rating [21, 23]
40: Plant response rating, Rice ([3]; 125 g ai/ha, 0 to 100 scale, 0 is no effect, 100 is complete control)
60: Barnyardgrass plant response rating [4, 26]

CCc1nc(C(C)(C)C)sc1C(=O)Nc1cccc(C(=O)N(C)CC)c1 [Compound 229]
60: Pigweed plant response rating [6, 23] | Velvetleaf plant response rating [21, 23]
85: Plant response rating, Ducksalad [17, 28]
10: Morningglory plant response rating (0 to 100 scale) [5, 29] | Morningglory plant response rating [5, 23] | Surinam Grass plant response rating [11, 23] | Crabgrass, Large plant response rating [15, 23] | Corn plant response rating (0 to 100 scale) [16, 29] | Corn plant response rating [16, 23]
0: Cocklebur plant response rating (0 to 100 scale) [13, 29] | Ducksalad plant response rating [17, 25] | Ducksalad plant response rating [17, 32]
40: Barnyardgrass plant response rating [4, 25] | Sedge, Umbrella plant response rating [8, 32] | Surinam Grass plant response rating (0 to 100 scale) [11, 29] | Plant response rating, Cocklebur [13, 30] | Wheat plant response rating [14, 31] | Crabgrass, Large plant response rating (0 to 100 scale) [15, 29] | Plant response rating, Corn [16, 30] | Velvetleaf plant response rating (0 to 100 scale) [21, 29]
90: Plant response rating, Barnyardgrass [1, 30] | Ducksalad plant response rating [7] | Barnyardgrass plant response rating [9] | Plant response rating, Rice [12, 28] | Rice plant response rating [18] | Lambsquarters plant response rating (0 to 100 scale) [19, 29]
70: Plant response rating, Rice ([3]; 500 g ai/ha, visual rating, 0 = no effect, 100 = complete control) | Morningglory plant response rating [5, 31] | Cocklebur plant response rating [13, 31] | Lambsquarters plant response rating [19, 23] | Velvetleaf plant response rating [21, 31]
35: Rice plant response rating [12, 25] | Rice plant response rating [12, 32]
100: Pigweed plant response rating (0 to 100 scale) [6, 29] | Plant response rating, Pigweed [6, 30] | Plant response rating, Crabgrass, Large [15, 30] | Plant response rating, Lambsquarters [19, 30] | Plant response rating, Velvetleaf [21, 30]
30: Oat, Wild plant response rating [2, 23] | Rice plant response rating (0 to 100 scale) ([3]; 125 g ai/ha, 0 = no effect, 100 = complete control) | Sedge, Umbrella plant response rating [8, 25] | Blackgrass plant response rating [10, 23] | Blackgrass plant response rating [10, 31] | Wheat plant response rating [14, 23] | Foxtail, Giant plant response rating [22, 23]
80: Plant response rating, Barnyardgrass [4, 28] | Pigweed plant response rating [6, 31] | Sedge, Umbrella plant response rating [8, 33] | Plant response rating, Sedge, Umbrella [8, 28] | Plant response rating, Surinam Grass [11, 30] | Rice plant response rating [12, 33] | Ducksalad plant response rating [17, 33] | Lambsquarters plant response rating [19, 31] | Sedge, Umbrella plant response rating [20] | Plant response rating, Foxtail, Giant [22, 30]
50: Barnyardgrass plant response rating (0 to 100 scale) [1, 29] | Barnyardgrass plant response rating [1, 31] | Oat, Wild plant response rating [2, 31] | Foxtail, Giant plant response rating (0 to 100 scale) [22, 29] | Foxtail, Giant plant response rating [22, 31]
75: Barnyardgrass plant response rating [4, 33]
45: Barnyardgrass plant response rating [4, 32]
20: Barnyardgrass plant response rating [1, 23] | Plant response rating, Morningglory [5, 30] | Surinam Grass plant response rating [11, 31] | Cocklebur plant response rating [13, 23] | Crabgrass, Large plant response rating [15, 31] | Corn plant response rating [16, 31]
